From patent US11266655B2, “Methods and compositions for treating urea cycle disorders” (Camp4 Therapeutics Corporation, priority 2019, dated 2022)
Several values for one entry are separate records, joined by “and”; a condition that tells them apart may be missing. Equal entries are not always repeated.

Experiments:
[1] = system: OTC; assay: OTC expression modulated by compounds, OTC/GeoMean of housekeeping genes, DMSO = 1 (Table 3A); assay type: cell-based, human; conditions: 10 uM final concentration
[2] = system: OTC; assay: HSP90 or HSP70 inhibitors in primary human hepatocytes, OTC mRNA; assay type: cell-based; conditions: hepatocytes from Donor B, normalized to B2M
Description: (§1) Additional small molecules that inhibit HSP90 or HSP70 were tested in primary human hepatocytes as described in Example 2. HSP90 or HSP70 inhibitors were tested in triplicate at 0.3 μM and 3 μM. The results are shown as the fold change (mRNA FC) in the mRNA levels of OTC and CPS1 genes after treatment compared to an untreated control (DMSO) and the standard deviation (SD). In addition, a dose titration experiment was performed with selected HSP90 inhibitors. Hepatocytes were incubated with increasing concentrations of HSP90 inhibitors and the changes in OTC and CPS1 expression quantified as previously described.
(§2) HSP90 and HSP70 inhibitors were compared to confirm the role of HSP90 in modulating OTC and CPS1 expression. Hepatocytes from Donor B were incubated with various HSP90 inhibitors or an HSP70 inhibitor, Pifithrin-μ, and then harvested for mRNA quantification. OTC and CPS1 mRNA levels were normalized to B2M.

[3] = system: NAGS; assay type: cell-based, human; conditions: primary human hepatocytes
[4] = system: CPS1; assay: HSP90 or HSP70 inhibitors in primary human hepatocytes, CPS1 mRNA; assay type: cell-based; conditions: hepatocytes from Donor B, normalized to B2M
Description: as §1, §2

[5] = system: urea cycle genes; assay: RNA-seq of primary human hepatocytes, compounds that modulate multiple urea cycle-related genes; assay type: cell-based; conditions: primary human hepatocytes, RNA-seq
[6] = system: OTC; assay: RNA-seq of compound-treated primary human hepatocytes, OTC expression; assay type: cell-based; conditions: primary human hepatocytes, RNA-seq
[7] = system: ARG1; assay: RNA-seq of compound-treated primary human hepatocytes, ARG1 expression; assay type: cell-based; conditions: primary human hepatocytes
[8] = system: SLC25A15; assay: RNA-seq of compound-treated primary human hepatocytes, SLC25A15 expression; assay type: cell-based; conditions: primary human hepatocytes, triplicate (Table 24, FIG. 16A-B)
[9] = system: ASS1; assay: RNA-seq of compound-treated primary human hepatocytes, ASS1 expression; assay type: cell-based; conditions: primary human hepatocytes, triplicate (Table 15, FIG. 7)
[10] = system: SLC25A13; assay: RNA-seq of compound-treated primary human hepatocytes, SLC25A13 expression; assay type: cell-based; conditions: primary human hepatocytes, triplicate (Table 23, FIG. 15)

In the case of `Cc1cc(Nc2cc(CN3CCOCC3)c3nc(C)c(Cc4ccc(Cl)cc4F)n3n2)n[nH]1` [LY2784544], the “Max Value (OTC/GeoMean of HKs; DMSO = 1)” value [1] was 2.78.
For `NS(=O)(=O)C#Cc1ccccc1` [Pifithrin-μ], the “OTC Expression mRNA FC” value ([2]; 0.3 uM) was 1.20, the “OTC Expression mRNA FC” value ([2]; 3 uM) was 1.29 and the “Fold change (Log 2) vs untreated, NAGS expression” value ([3]; RNA-seq (Table 6)) was 1.18 Log 2. For the same compound, the “CPS1 Expression mRNA FC” value ([4]; 0.3 uM) was 0.98, the “CPS1 Expression mRNA FC” value ([4]; 3 uM) was 1.05 and the “number of urea cycle genes whose expression was significantly up-regulated” value [5] was “three”. For the same compound, the “Up-regulated Genes” value ([5]; urea cycle-related genes significantly increased (Table 10)) was “OTC, NAGS, ARG1”, the “OTC expression, Fold change (Log 2) vs untreated” value [6] was 0.79 Log 2 and the “Fold change (Log 2) vs untreated, ARG1 expression” value ([7]; RNA-seq (Table 7)) was 1.87 Log 2.
`CNC(=O)c1ccc(C)c(-n2c(C)cc(OCc3ccc(F)cc3F)c(Br)c2=O)c1` [PH-797804] was tested, and the “Max Value (OTC/GeoMean of HKs; DMSO = 1)” value [1] was 1.53.
`CO[C@H]1/C=C\C=C(/C)C(=O)NC2=CC(=O)C(NCCN(C)C)=C(C[C@@H](C)C[C@H](OC)[C@H](O)[C@@H](C)/C=C(\C)[C@@H]1OC(N)=O)C2=O` [Alvespimycin] was tested, and the “OTC Expression mRNA FC” value ([2]; 0.3 uM) was 3.03, the “OTC Expression mRNA FC” value ([2]; 3 uM) was 1.57 and the “CPS1 Expression mRNA FC” value ([4]; 0.3 uM) was 2.33. The “CPS1 Expression mRNA FC” value ([4]; 3 uM) was 1.94.
`C=CCNC1=C2C[C@@H](C)C[C@H](OC)[C@H](O)[C@@H](C)/C=C(\C)[C@H](OC(N)=O)[C@@H](OC)/C=C\C=C(/C)C(=O)NC(=CC1=O)C2=O` [17-AAG (Tanespimycin), Tanespimycin] was tested, and the “OTC Expression mRNA FC” value ([2]; 0.3 uM) was 5.01, the “OTC Expression mRNA FC” value ([2]; 3 uM) was 2.84 and the “Relative SLC25A15 level vs Untreated (±Standard Deviation)” value ([8]; 0.3 μM) was 1.48 ± 0.01. The “Relative SLC25A15 level vs Untreated (±Standard Deviation)” value ([8]; 1 μM) was 1.40 ± 0.05, the “Relative SLC25A15 level vs Untreated (±Standard Deviation)” value ([8]; 3 μM) was 1.51 ± 0.09 and the “Relative SLC25A15 level vs Untreated (±Standard Deviation)” value ([8]; 10 μM) was 1.46 ± 0.14. For the same compound, the “CPS1 Expression mRNA FC” value ([4]; 0.3 uM) was 1.79, the “CPS1 Expression mRNA FC” value ([4]; 3 uM) was 2.51 and the “Relative ASS1 level vs Untreated (±Standard Deviation)” value ([9]; 0.3 μM) was 1.37 ± 0.11. For the same compound, the “Relative ASS1 level vs Untreated (±Standard Deviation)” value ([9]; 1 μM) was 1.46 ± 0.07, the “Relative SLC25A13 level vs Untreated (±Standard Deviation)” value ([10]; 0.3 μM) was 1.48 ± 0.01 and the “Relative SLC25A13 level vs Untreated (±Standard Deviation)” value ([10]; 1 μM) was 1.40 ± 0.05. For the same compound, the “Relative SLC25A13 level vs Untreated (±Standard Deviation)” value ([10]; 3 μM) was 1.51 ± 0.09 and the “Relative SLC25A13 level vs Untreated (±Standard Deviation)” value ([10]; 10 μM) was 1.46 ± 0.14.
`N#CC(C#N)=NNc1cccc(Cl)c1` [CCCP] was tested, and the “Max Value (OTC/GeoMean of HKs; DMSO = 1)” value [1] was 4.06.
For `CCNC(=O)c1noc(-c2cc(C(C)C)c(O)cc2O)c1-c1ccc(CN2CCOCC2)cc1` [Luminespib], the “OTC Expression mRNA FC” value ([2]; 0.3 uM) was 0.81, the “OTC Expression mRNA FC” value ([2]; 3 uM) was 3.07 and the “Relative SLC25A15 level vs Untreated (±Standard Deviation)” value ([8]; 3 μM) was 1.32 ± 0.24. For the same compound, the “Relative SLC25A15 level vs Untreated (±Standard Deviation)” value ([8]; 10 μM) was 1.55 ± 0.02 and 1.82 ± 0.08, the “Relative NAGS level vs Untreated (±Standard Deviation)” value ([3]; 1 μM, triplicate (Table 21, FIG. 13)) was 1.32 ± 0.30 and the “CPS1 Expression mRNA FC” value ([4]; 0.3 uM) was 0.86. For the same compound, the “CPS1 Expression mRNA FC” value ([4]; 3 uM) was 1.39, the “Relative ARGI level vs Untreated (±Standard Deviation)” value ([7]; 10 μM, triplicate (Table 17, FIG. 9)) was 1.34 ± 0.07 and the “Relative SLC25A13 level vs Untreated (±Standard Deviation)” value ([10]; 10 μM) was 1.55 ± 0.02.
